This passage reports IC50 results from patent US20220257774A1, “AROMATIC AMINE AR AHD BET TARGETING PROTEIN DEGRADATION CHIMERA COMPOUND AND USE” (HINOVA PHARMACEUTICALS INC., priority 2019, published 2022).

The subject of experiment [1] is LNCaP/AR cells. The experiment is described as follows: Inhibition of the proliferation of LNCap/AR cells (CCK-8). The experiment is classed as cell-based. The following applies: read-out: LNCap/AR IC50. The gist of the method: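 Proliferation was read by CCK-8 (OD 450 nm, 1 h) after six days of compound exposure. Cells were seeded at 1000 per well overnight, then dosed in duplicate over nine 3-fold steps with a top final concentration of 10 μM in 0.1% DMSO; IC50 was fitted from inhibition curves.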

For experiment [2], the system named is 22RV1 cells. The experiment can be described thus: Inhibition of the proliferation of drug-resistant prostate cancer cell 22RV1 (CCK-8). It is filed as cell-based. Particulars: 22RV1 cells (enzalutamide-resistant), same method. The gist of the method:
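22RV1 cells, 1000/well in RPMI1640 with 10% FBS, treated in duplicate with 9-point 3-fold dilutions from 10 μM (0.1% DMSO final). After 6 days at 37 °C, CCK-8 added for 1 h and OD450 read. IC50 from dose-response inhibition fit.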

[3] abbreviates: 144 h, LNCaP/AR cells, 6 days culture, CCK-8.
Setting [4] is: LNCaP/AR cells, 6 days culture, CCK-8.

Like-named read-outs stand apart in the source and are kept apart here. Bounds are passed on as bounds.

As for `Cc1ccc(-c2c(C)noc2C)cc1N(CCCOC1CN(c2ccc3c(c2)CN(C2CCC(=O)NC2=O)C3=O)C1)c1ccc(C2(C#N)CC2)cc1` (stereo not shown) [Compound 122, 1-(4-((5-(3,5-dimethylisoxazol-4-yl)-2-methylphenyl)(3-((1-(2-(2,6-dioxopiperidin-3-yl)-1-oxoisoindolin-5-yl)azetidin-3-yl)oxy)propyl)amino)phenyl)cyclopropane-1-nitrile], the IC50 in experiment [1] (setting [3]) and in experiment [2] (Homo sapiens) was below 100 nM each time.

Turning to `Cc1ccc(-c2c(C)noc2C)cc1N(CC1CC2(C1)CN(c1cc3c(cc1F)C(=O)N(C1CCC(=O)NC1=O)C3)C2)c1ccc(C2(C#N)CC2)cc1` (stereo not shown) [Compound 125, 1-(4-((5-(3,5-dimethylisoxazol-4-yl)-2-methylphenyl)((2-(2-(2-,2,6-dioxopiperidin-3-yl)-6-fluoro-1-oxoisoindolin-5-yl)-2-azaspiro[3.3]heptan-6-yl)methyl)amino)phenyl)cyclopropane-1-carbonitrile], the IC50 in experiment [1] (setting [3]) and in experiment [2] (Homo sapiens) was 501 to 2000 nM each time.

In the case of `Cc1ccc(-c2c(C)noc2C)cc1N(CC1CC2(C1)CN(c1cc3c(cc1F)CN(C1CCC(=O)NC1=O)C3=O)C2)c1ccc(C2(C#N)CC2)cc1` (stereo not shown) [Compound 126, 1-(4-((5-(3,5-dimethylisoxazol-4-yl)-2-methylphenyl)((2-(2-(2-,2,6-dioxopiperidin-3-yl)-6-fluoro-3-oxoisoindolin-5-yl)-2-azaspiro[3.3]heptan-6-yl)methyl)amino)phenyl)cyclopropane-1-carbonitrile], the IC50 in experiment [1] (setting [4]) is 501 to 2000 nM; in experiment [2], above 2000 nM.

Take `Cc1ccc(-c2c(C)noc2C)cc1N(CCC1CN(c2cc3c(cc2F)C(=O)N(C2CCC(=O)NC2=O)C3=O)C1)c1ccc(C2(C#N)CC2)cc1` (stereo not shown) [Compound 130, 1-(4-((5-(3,5-dimethylisoxazol-4-yl)-2-methylphenyl)(2-(1-(2-(2,6-dioxopiperidin-3-yl)-6-fluoro-1,3-dioxoisoindolin-5-yl)azetidin-3-yl)ethyl)amino)phenyl)cyclopropane-1-carbonitrile]: the IC50 in experiment [1] (setting [4]) was 101 to 500 nM; in experiment [2], below 100 nM.

On to `Cc1ccc(-c2c(C)noc2C)cc1N(C[C@H]1CC[C@H](CNc2ccc3c(c2)C(=O)N(C2CCC(=O)NC2=O)C3=O)CC1)c1ccc(C#N)c(Cl)c1` (stereo partly shown) [Compound 132, 2-Chloro-4-((5-(3,5-dimethylisoxazol-4-yl)-2-methylphenyl)(((1r,4r)-4-(((2-(2,6-dioxopiperidin-3-yl)-1,3-dioxoisoindolin-5-yl)amino)methyl)cyclohexyl)methyl)amino)benzonitrile], for which the IC50 in experiment [1] (LNCaP/AR, 144 h) is above 2000 nM; in experiment [2] (Homo sapiens) it was 101 to 500 nM.

On to `Cc1ccc(-c2c(C)noc2C)cc1N(CC1CCC(CNc2ccc3c(c2)CN(C2CCC(=O)NC2=O)C3=O)CC1)c1ccc(C#N)c(Cl)c1` (stereo not shown) [Compound 133, 2-Chloro-4-((5-(3,5-dimethylisoxazol-4-yl)-2-methylphenyl)((1r,4r)-4-((2-(2,6-dioxopiperidin-3-yl)-1-oxoisoindolin-5-yl)amino)methyl)cyclohexyl)methyl)amino)benzonitrile], for which the IC50 in experiment [1] (LNCaP/AR, 144 h) was below 100 nM; in experiment [2] (Homo sapiens) it was below 100 nM.

For the compound `Cc1ccc(-c2c(C)noc2C)cc1N(CC1CCC(CNc2ccc3c(c2)C(=O)N(C2CCC(=O)NC2=O)C3)CC1)c1ccc(C#N)c(Cl)c1` (stereo not shown) [Compound 134, 2-Chloro-4-((5-(3,5-dimethylisoxazol-4-yl)-2-methylphenyl)((1r,4r)-4-((2-(2,6-dioxopiperidin-3-yl)-3-oxoisoindolin-5-yl)amino)methyl)cyclohexyl)methyl)amino)benzonitrile], the IC50 in experiment [1] (LNCaP/AR, 144 h) is 101 to 500 nM; in experiment [2] (Homo sapiens) it was below 100 nM.

In the case of `Cc1ccc(-c2c(C)noc2C)cc1N(C[C@H]1CC[C@H](CNc2cc3c(cc2F)CN(C2CCC(=O)NC2=O)C3=O)CC1)c1ccc(C#N)c(Cl)c1` (stereo partly shown) [Compound 136], the IC50 in experiment [1] (LNCaP/AR, 144 h) is 501 to 2000 nM; in experiment [2] (Homo sapiens), 101 to 500 nM.

For the compound `Cc1ccc(-c2c(C)noc2C)cc1N(CC1(COC2CN(c3cc4c(cc3F)C(=O)N(C3CCC(=O)NC3=O)C4=O)C2)CC1)c1ccc(C2(C#N)CC2)cc1` (stereo not shown) [Compound 138, 1-(4-((5-(3,5-dimethylisoxazol-4-yl)-2-methylphenyl)((1-(((1-(2-(2,6-dioxopiperidin-3-yl)-6-fluoro-1,3-dioxoisoindolin-5-yl)azetidin-3-yl)oxy)methyl)cyclopropyl)methyl)amino)phenyl)cyclopropane-1-nitrile], the IC50 in experiment [1] (setting [3]) was 101 to 500 nM; in experiment [2] (Homo sapiens), above 2000 nM.

Take `Cc1ccc(-c2c(C)noc2C)cc1N(CC1CN(C2CCN(c3cc4c(cc3F)C(=O)N(C3CCC(=O)NC3=O)C4=O)CC2)C1)c1ccc(C2(C#N)CC2)cc1` (stereo not shown) [Compound 139, 1-(4-((5-(3,5-dimethylisoxazol-4-yl)-2-methylphenyl)((1-(1-(2-(2,6-dioxopiperidin-3-yl)-6-fluoro-1,3-dioxoisoindolin-5-yl)piperidin-4-yl)azetidin-3-yl)methyl)amino)phenyl)cyclopropane-1-carbonitrile]: the IC50 in experiment [1] (setting [3]) and in experiment [2] (Homo sapiens) was above 2000 nM each time.

For the compound `Cc1ccc(-c2c(C)noc2C)cc1N(CCCCCOCC(=O)N[C@H](C(=O)N1C[C@H](O)C[C@H]1C(=O)N[C@@H](C)c1ccc(-c2scnc2C)cc1)C(C)(C)C)c1ccc(C2(C#N)CC2)cc1` [Compound 143], the IC50 in experiment [1] (setting [3]) was 101 to 500 nM; in experiment [2] (Homo sapiens) it was below 100 nM.

As for `Cc1ccc(-c2c(C)noc2C)cc1N(CC1CN(C2CCN(c3ccc4c(c3)C(=O)N(C3CCC(=O)NC3=O)C4=O)CC2)C1)c1ccc(C2(C#N)CC2)cc1` (stereo not shown) [Compound 152], the IC50 in experiment [1] (LNCaP/AR, 144 h) is above 2000 nM; in experiment [2] (Homo sapiens), 501 to 2000 nM.

Take `Cc1ccc(-c2c(C)noc2C)cc1N(CC1CN(C2CN(c3cc4c(cc3F)C(=O)N(C3CCC(=O)NC3=O)C4=O)C2)C1)c1ccc(C2(C#N)CC2)cc1` (stereo not shown) [Compound 153]: the IC50 in experiment [1] (setting [4]) and in experiment [2] was below 100 nM each time.

Consider `Cc1ccc(-c2c(C)noc2C)cc1N(CC1CC2(CCN(c3cc4c(cc3F)C(=O)N(C3CCC(=O)NC3=O)C4=O)CC2)C1)c1ccc(C2(C#N)CC2)cc1` (stereo not shown) [Compound 154], for which the IC50 lay in the range of 501 to 2000 nM in experiment [1] (setting [3]) and 101 to 500 nM in experiment [2] (Homo sapiens).

In the case of `Cc1ccc(-c2c(C)noc2C)cc1N(CC1CN(c2cc3c(cc2F)CN(C2CCC(=O)NC2=O)C3=O)C1)c1ccc(C2(C#N)CC2)cc1` (stereo not shown) [Compound 155], the IC50 in experiment [1] (setting [3]) and in experiment [2] (Homo sapiens) was above 2000 nM throughout.

`Cc1ccc(-c2c(C)noc2C)cc1N(CC1CN(c2cc3c(cc2F)C(=O)N(C2CCC(=O)NC2=O)C3)C1)c1ccc(C2(C#N)CC2)cc1` (stereo not shown) [Compound 156]: the figures for the IC50 in experiment [1] (setting [3]) and in experiment [2] (Homo sapiens) were 101 to 500 nM and 501 to 2000 nM, respectively.

Consider `Cc1ccc(-c2c(C)noc2C)cc1N(CC1CN(C2CN(c3cc4c(cc3F)C(=O)N(C3CCC(=O)NC3=O)C4)C2)C1)c1ccc(C2(C#N)CC2)cc1` (stereo not shown) [Compound 158], for which the IC50 in experiment [1] (setting [4]) and in experiment [2] was below 100 nM throughout.

Regarding `Cc1ccc(-c2c(C)noc2C)cc1N(CC1CCN(C2CN(c3cc4c(cc3F)C(=O)N(C3CCC(=O)NC3=O)C4)C2)CC1)c1ccc(C2(C#N)CC2)cc1` (stereo not shown) [Compound 160], the IC50 in experiment [1] (setting [3]) is above 2000 nM; in experiment [2] (Homo sapiens), below 100 nM.

For `Cc1ccc(-c2c(C)noc2C)cc1N(CC1CCC(Nc2cc3c(cc2F)C(=O)N(C2CCC(=O)NC2=O)C3=O)CC1)c1ccc(C2(C#N)CC2)cc1` (stereo not shown) [Compound 161, 1-(4-((5-(3,5-dimethylisoxazol-4-yl)-2-methylphenyl)(((1s,4s)-4-((2-(2,6-dioxopiperidin-3-yl)-6-fluoro-1,3-dicarbonylisoindolin-5-yl)amino)cyclohexyl)methyl)amino)phenyl) phenylcyclopropanecarbonitrile], the IC50 in experiment [1] (setting [3]) and in experiment [2] (Homo sapiens) was above 2000 nM throughout.

Take `Cc1ccc(-c2c(C)noc2C)cc1N(CC1CCC(Nc2cc3c(cc2F)CN(C2CCC(=O)NC2=O)C3=O)CC1)c1ccc(C2(C#N)CC2)cc1` (stereo not shown) [Compound 162, 1-(4-((5-(3,5-Dimethylisoxazol-4-yl)-2-methylphenyl)(((1s,4s)-4-((2-(2,6-dioxopiperidin-3)-6-fluoro-3-isoindolinone-5-yl)amino)cyclohexyl)methyl)amino)phenyl)phenylcyclopropanecarbonitrile]: the results for the IC50 in experiment [1] (setting [4]) and in experiment [2] were 101 to 500 nM and above 2000 nM, respectively.

With `Cc1ccc(-c2c(C)noc2C)cc1N(CC1CCC(Nc2cc3c(cc2F)C(=O)N(C2CCC(=O)NC2=O)C3)CC1)c1ccc(C2(C#N)CC2)cc1` (stereo not shown) [Compound 163, 1-(4-((5-(3,5-Dimethylisoxazol-4-yl)-2-methylphenyl)(((1s,4s)-4-((2-(2,6-dioxopiperidin-3)-6-fluoro-1-isoindolinone-5-yl)amino)cyclohexyl)methyl)amino)phenyl)phenylcyclopropanecarbonitrile], the IC50 is below 100 nM in experiment [1] (setting [4]) and above 2000 nM in experiment [2].

As to `Cc1ccc(-c2c(C)noc2C)cc1N(CCCCNc1cc2c(cc1F)C(=O)N(C1CCC(=O)NC1=O)C2=O)c1ccc(C#N)c(Cl)c1` (stereo not shown) [Compound 164, 2-Chloro-4-((5-(3,5-dimethylisoxazol-4-yl)-2-methylphenyl)(4-((2-(2,6-dioxopiperidin-3)-6-fluoro-1,3-dioxyisoindolin-5-yl)amino)butyl)amino)benzonitrile], the IC50 in experiment [1] (LNCaP/AR, 144 h) is 501 to 2000 nM; in experiment [2] (Homo sapiens), above 2000 nM.

With `Cc1ccc(-c2c(C)noc2C)cc1N(CCCCNc1cc2c(cc1F)CN(C1CCC(=O)NC1=O)C2=O)c1ccc(C#N)c(Cl)c1` (stereo not shown) [Compound 166, 2-Chloro-4-((5-(3,5-dimethylisoxazol-4-yl)-2-methylphenyl)(4-((2-(2,6-dioxopiperidin-3)-6-fluoro-3-isoindolinone-5-yl)amino)butyl)amino)benzonitrile], the IC50 in experiment [1] (LNCaP/AR, 144 h) was 101 to 500 nM; in experiment [2] (Homo sapiens), below 100 nM.
